Data published in paper PMC6071731 (2018).

What was measured:
[1] = test system: 22AG (DNA, G4) AGGGTTAGGGTTAGGGTTAGGG; assay: fluorimetric titration; conditions: 95 mM K+; potassium phosphate buffer, 5% DMSO, pH 7.0; ligand 20 μM; DNA concentration in oligonucleotide
[2] = test system: 22AG (DNA, G4) AGGGTTAGGGTTAGGGTTAGGG; assay: photometric titration; conditions: 95 mM K+; potassium phosphate buffer, 5% DMSO, pH 7.0; ligand 20 μM; DNA concentration in oligonucleotide

## C(#Cc1cc2ccccc2c2ccccc12)c1ccc2c[n+]3ccccc3cc2c1
[1]
  Kb: 30000 M⁻¹

## C(#Cc1ccc2c[n+]3ccccc3cc2c1)c1ccccc1
[1]
  Kb: 220000 M⁻¹

## CN(C)c1ccc(C#Cc2ccc3c[n+]4ccccc4cc3c2)cc1
[2]
  Kb: 16000 M⁻¹

## COc1ccc(C#Cc2ccc3c[n+]4ccccc4cc3c2)cc1
[2]
  Kb: 26000 M⁻¹
